In patent publication US9656981B2, “Peripherally-acting cannabinoid receptor agonists for chronic pain” (The Regents of the University of California, priority 2012, dated 2017):
“Also recorded” adds a separate entry of the source. Like-named read-outs stand apart in the source and are kept apart here.

Assays:
[1] = target: CB1R (Homo sapiens, UniProt P21554); test: CB1R radioligand displacement binding assay (CP55940 radioligand)
Procedure: Heterologous competition binding assays were performed to calculate receptor affinities. Unlabeled SR141716 or SR144528 were used as appropriate controls for non-specific binding (NSB) in the assay. Calculation of the equilibrium dissociation constant (Ki) was performed using the Cheng-Prusoff equation.

[2] = target: CB2R (Homo sapiens, UniProt P34972); test: CB2R radioligand displacement binding assay (CP55940 radioligand); details: Table 1; CP55940 radioligand; read-out: CB2_KI_CP
[3] = S9 fraction stability assay; assay type: in vitro ADME; details: 30 min; rat liver S9, 10 μM
Procedure: Compounds are incubated at 10 μM in rat (male Sprague Dawley) liver S9 at 37° C. Each compound is prepared in ethanol at a concentration of 1 mM. An assay mixture containing S9 (1 mg protein/mL final concentration) and an NADPH regenerating system (NADP [1 mM final], glucose 6-phosphate [5 mM final] and glucose 6-phosphate dehydrogenase [1 U/mL final]) in a buffer consisting of 50 mM KPO4 phosphate buffer, pH 7.4 with 3 mM MgCl2 is prepared and preincubated at 37° C. for 5 min. A 10 μL volume of the 1 mM solution is added to 990 μL of assay mixture in a glass test tube @ 37° C. to initiate the assay. Samples (50 μL) are removed at 0, 15, 30, 60 and 120 min and immediately extracted with 3 volumes (150 μL) of methanol, centrifuged to pellet protein and supernatants transferred to LC/MS vials for analysis.

[4] = test system: sciatic nerve entrapment (SNE) neuropathy; test: SNE neuropathy, mechanical allodynia (von Frey); assay type: in vivo, rat
Procedure: The effectiveness of CBR agonists was tested for alleviating the painful symptoms of neuropathy induced by unilateral sciatic nerve entrapment (SNE)^131. The peripheral neuropathy induced by SNE is highly comparative to that of chronic constriction injury (CCI), which uses chromic gut suture materials instead of polyethylene cuffs^132. […] This increased excitability is at least in part attributable to injury-induced post-transcriptional transport of the voltage-gated sodium channel 1.8 (NaV1.8) mRNA, axonal accumulation of NaV1.8 mRNA, and its local protein translation leading to the increased NaV1.8 functional expression in injured nerve^136. The hyperexcitability and ectopic burst discharge of primary sensory neurons are widely considered to be the major contributors to pain symptomatology of peripheral neuropathy models. The SNE-induced mechanical allodynia effectively models the most common complaint of human neuropathy patients of dynamic mechanical allodynia. Behavioral measurements of mechanical sensitivity were conducted before and after induction of SNE as follows:
(§1) Rats are placed in a plastic-walled cage (10×20×13 cm) with a metal mesh floor (0.6×0.6 cm holes) and allowed to acclimate for 10 min. The amount of pressure (g) needed to evoke a hindpaw withdrawal response is measured 4 times on each paw separated by 30-s intervals using a von Frey-type digital meter (Model 1601C, IITC Instr.). Results of 4 tests/session are averaged for each paw.

[5] = test system: rats; test: Catalepsy (ring) test of the tetrad; assay type: in vivo, rat
Procedure: Catalepsy (ring) test. Catalepsy was determined with a ring immobility test^154, modified for rats^139, 153. Rats are placed with their forepaws on a horizontal metal ring (12 cm diameter) at a height that allows their hindpaws to just touch the bench surface. Immobility is recorded as the time for the rat to move off the ring with a 100 s cutoff. Rats are tested before vehicle/drug injections and again at various times after injection.

[6] = test system: rats; test: Rotarod test of the tetrad; assay type: in vivo, rat
Procedure: Rats were tested for motor function and the ataxic effects of novel drugs as described previously^151-153. To determine drug effects on motor coordination, rats are trained 72 h before the test (3 sessions 24 h apart) to remain for at least 180 s on a rotarod revolving at an acceleration of 4-40 revs over 5 min). Rats are tested immediately before vehicle or drug injections and tested again at 2, 6, 24 and 48 hrs after injection. The time for which the rats are able to remain on the rotarod is recorded up to a cut-off of 5 min.

[7] = test system: rats; test: Tail-flick test of the tetrad; assay type: in vivo, rat; details: 0.3 mg/kg, intraperitoneal
Source text: A modified Hargreaves apparatus (Model 390, IITC Instr.) is used to measure tail-flick latency (TFL). Radiant heat is directed to a point 3 cm from the tail tip and the TFL observed and timed with a photo cell counter. The intensity of the radiant heat is adjusted for a baseline TFL of approximately 5-7 seconds for naïve rats, with a 25 s cutoff set to avoid tissue damage (see FIG. 3).

[8] = test system: CFA-induced mechanical allodynia; test: CFA chronic inflammation, mechanical allodynia; assay type: in vivo, rat; details: systemic injection
Procedure: as §1
Compounds were tested in a well-established model of chronic inflammation. In this model, unilateral intraplantar injection of complete Freund's adjuvant (CFA) leads to long-lasting symptoms of mechanical allodynia and thermal hyperalgesia of the affected hindpaw, which is alleviated by local, […] administration of CB1R ligands^125, 155. […] This is consistent with the higher CB1R affinity of our novel compound 13339-145-35 (Compound 9, see Table 1) compared with the AstraZeneca AZ11713908 compound^125.

[9] = Pharmacokinetic profiling: plasma, CSF and brain levels by LC-MS/MS; assay type: in vivo, rat
Procedure: Pharmacokinetic profiling of novel compounds is prerequisite to their clinical development. […] Plasma, cerebrospinal fluid (CSF), and brain samples were analyzed by LC-MS/MS and quantified using standard curves prepared from appropriate drug dilutions in fluids obtained from untreated animals.
Measurements of brain levels are a must for putative peripherally-restricted analogs. Total brain levels include drug partitioned into brain lipids+unbound drug in equilibrium with extracellular fluid. Therefore, cerebrospinal fluid (CSF)/plasma ratios are considered to be more precise estimates of brain penetration of a given drug because of the continuity of CSF with extracellular space^174. However, both measures are needed to confirm minimal CNS access and to compare with other reported peripherally-restricted CB1R ligands^110, 111. […] Plasma, brain and CSF samples were obtained at ˜75 min after PrNMI administration. Data presented as mean±SEM, n=3 rats.

[10] = 0.3 mg/kg, intraperitoneal, listed as 13339-145-35

CB1R, sequence (P21554 whole entry): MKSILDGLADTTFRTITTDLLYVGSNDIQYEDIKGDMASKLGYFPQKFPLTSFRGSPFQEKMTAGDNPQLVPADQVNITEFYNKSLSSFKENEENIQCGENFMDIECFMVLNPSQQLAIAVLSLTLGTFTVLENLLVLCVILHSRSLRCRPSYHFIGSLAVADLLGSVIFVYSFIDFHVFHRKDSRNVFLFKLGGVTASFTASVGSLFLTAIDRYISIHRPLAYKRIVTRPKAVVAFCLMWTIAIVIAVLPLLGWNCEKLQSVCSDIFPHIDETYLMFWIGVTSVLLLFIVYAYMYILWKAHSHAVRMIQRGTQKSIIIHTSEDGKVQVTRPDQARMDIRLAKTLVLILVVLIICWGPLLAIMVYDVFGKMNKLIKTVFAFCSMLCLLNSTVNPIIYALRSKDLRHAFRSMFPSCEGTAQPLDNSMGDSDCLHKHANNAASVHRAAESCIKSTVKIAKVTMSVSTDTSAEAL
CB2R, sequence (P34972 whole entry): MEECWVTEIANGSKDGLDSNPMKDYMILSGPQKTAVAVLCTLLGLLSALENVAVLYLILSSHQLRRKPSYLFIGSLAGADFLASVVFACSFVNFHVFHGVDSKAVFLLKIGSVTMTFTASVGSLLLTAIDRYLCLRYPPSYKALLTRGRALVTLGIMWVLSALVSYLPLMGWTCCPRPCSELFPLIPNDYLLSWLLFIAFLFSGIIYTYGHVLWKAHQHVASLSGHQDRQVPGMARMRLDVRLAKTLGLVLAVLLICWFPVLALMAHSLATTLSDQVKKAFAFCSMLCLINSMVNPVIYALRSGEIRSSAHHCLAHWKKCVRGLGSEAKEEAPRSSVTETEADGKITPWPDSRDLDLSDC

CCCc1ccc(/C=C2\C=C(CCN3CCOCC3)c3ccccc32)c2ccccc12 [Compound 9, 4-{2-[(1E)-1-[(4-propylnaphthalen-1-yl)methylidene]-1H-inden-3-yl]ethyl} morpholine]
Ki [1]: 1 nM | Ki ([1]; read-out: CB1R binding affinity (Ki)): 1.18 nM | Ki [2]: 1 nM | S9% remaining @ xy min [3]: 39% | effect on SNE-induced mechanical allodynia (ipsilateral hindpaw withdrawal thresholds) ([4]; 0.3 mg/kg, systemic injection): large, reversible increases | SNE Neuropath Assay-% return to pre-drug (0.3 mg/kg) contralateal threshold at 2-3 h ([4]; 0.3 mg/kg, 2-3 h): 110% | effect on contralateral hindpaw withdrawal thresholds ([4]; 0.3 mg/kg, hindpaw contralateral to SNE): small, but significant increases | effect on SNE-induced mechanical allodynia ([4]; 0.6 mg/kg): Suppression of SNE-induced mechanical allodynia | suppression of neuropathy symptoms after oral administration ([4]; 3 mg/kg, gavage): effective in suppressing neuropathy symptoms | anti-allodynic effects at the 24 hr time point after oral administration ([4]; 3 mg/kg, gavage, 24 hr): potent anti-allodynic effects | effect in the catalepsy assay [5, 10]: no effect; also recorded: complete lack of effects | Catalepsy % change from pre-drug (0.3 mg/kg) at 1-3 hrs ([5]; 1-3 hrs): 0% | effect in the rotarod assay [6, 10]: no effect; also recorded: complete lack of effects | Rotarod % change from pre-drug (0.3 mg/kg) at 2-3 hr ([6]; 2-3 hr): 0% | effect in the tail-flick assay [7]: small effect | effect on CFA-induced mechanical allodynia [8]: small but significant relief | penetration into the CNS after systemic administration ([9]; plasma, brain and CSF samples): minimal penetration | Kp ([9]; rat, CSF and plasma, intraperitoneal, 0.3 mg/kg, i.p., ~75 min after administration, mean±SEM, n=3 rats): 0.001 ± 0.0005 | Kp at 1.25 h ([9]; rat, brain and plasma, ip, 0.3 mg/kg, i.p., ~75 min after administration, mean±SEM, n=3 rats): 0.182 ± 0.043
